Marks after values point to notes of the source that are not given here.
Columns and labels:
[1] = tested on: Staphylococcus epidermidis; test: MIC against Staphylococcus epidermidis clinical isolates; format: cell-based; conditions: 11 of 13 clinical isolates of S. epidermidis tested
Text: Approved Standard M7-A3. Methods for dilution antimicrobial susceptibility tests for bacteria that grow aerobically—Third edition. National Committee for Clinical Laboratory Standards, Villanova, Pa.; National Committee for Clinical Laboratory Standards, 1992. Tentative Guideline M26-T. Methods for determining bactericidal activity of antimicrobial agents. National Committee for Clinical Laboratory Standards, Villanova, Pa.].

[2] = tested on: methicillin-resistant VISA strain of S. aureus; test: Experimental endocarditis in rabbits, methicillin-resistant VISA strain; format: in vivo
Protocol: Aortic valve endocarditis was established in New Zealand white rabbits weighing approximately 3 kg. Rabbits were anesthetized and the right carotid artery surgically exposed and cannulated with a polyethylene catheter which was advanced into the left ventricle of the heart. After at least 24 h, the rabbits were infected intravenously with 10^6-10^7 cells of a methicillin-resistant S. aureus strain (MRSA 27619). Twenty-four hours later, the animals were randomly assigned to different treatment groups; untreated control (9 rabbits); positive control, vancomycin 30 mg/kg twice daily (15); lysostaphin 5 mg/kg three times daily (11); lysostaphin 5 mg/kg once daily (10); lysostaphin 5 mg/kg once daily+vancomycin 30 mg/kg twice daily (11). Any rabbits whose infection was not confirmed by pre-treatment blood culture were eliminated.
All treatments were intravenous and were carried out for three days. The state of health of the rabbits was assessed at intervals. The rabbits were sacrificed 18 h after the last treatment. Aortic vegetations were removed and weighed and processed to determine the number of viable bacteria, expressed as log,10CFU/gram. The limit of detection is 10^2 CFU/gram (log10CFU/gram=2.0). The mean titers of bacteria per gram were compared by one-way analysis of variance. The Student-Newman-Keuls test was used to adjust for multiple comparisons.
Strains that are both methicillin-resistant and resistant to vancomycin are a newly emerging problem. A variant strain of this type was selected after cycles of growth in glycopeptide-containing medium. The vancomycin MIC for the resulting strain was 8 μg/ml, as reported also for naturally occurring VISA strains isolated from patients in the U.S. and Japan. (Centers for Disease Control and Prevention, Morbidity and Mortality Weekly Report 1997; 46:813-815). Staphylococcal isolates are considered to be susceptible to vancomycin if the MIC is less than or equal to 4 μg/ml and to be completely resistant if the MIC is greater than or equal to 32 μg/ml (National Committee for Clinical Laboratory Standards, 1993. Approved Standard M2-A5. Performance standards for antimicrobial disk susceptibility tests—Fifth edition. National Committee for Clinical Laboratory Standards, Villanova, Pa.)

[3] = single parenteral dose, followed by gentamicin three days later; the patient died; cited from earlier work
[4] = tested on: methicillin-resistant clinical isolates of S. aureus and 27619VR; test: Time-kill experiment, four S. aureus strains (FIG. 2); format: cell-based; conditions: 1 μg/ml; three methicillin-resistant clinical isolates and 27619VR; 2×10^6 to 9×10^7 CFU/ml
Protocol: In another experiment (FIG. 2), three different methicillin-resistant clinical isolates of S. aureus, and a fourth strain, 27619VR, a laboratory-derived ‘VISA’ strain (i.e., with intermediate resistance to vancomycin) derived from a methicillin-resistant clinical isolate, were inoculated into cation-adjusted Mueller-Hinton broth (Becton Dickinson) and grown at 37° C. overnight. They were then diluted into fresh broth and incubated at 37° C. with gentle shaking until they were estimated to have reached the logarithmic stage of growth. […] Lysostaphin was added to each culture at the concentration of 1 μg/ml. At intervals, samples were withdrawn, serially diluted in 0.9% NaCl, and plated by spreading on Mueller-Hinton agar (Becton Dickinson). The agar plates were incubated for 48 hours at 37° C. and the colonies were counted manually.

S. aureus strain AG461 = conditions: strain AG461 (methicillin-resistant clinical isolate)
Text: The different concentrations of lysostaphin and vancomycin used were one and eight times their respective MIC.

[5] = at least 50 mg/kg/treatment; cited from earlier work

Substance: lysostaphin: recombinant lysostaphin enzyme from fermentation of B. sphaericus; majority component lacks the two N-terminal amino acids of the published sequence
- MIC [1]: ≤ 8 µg/mL
- CFU/g vegetation (expressed as log10 of the mean) ([2]; 5 mg/kg three times daily): 6.29 log10 CFU/g
- sterile/total vegetations ([2]; 5 mg/kg three times daily): 2/10
- CFU/g vegetation (expressed as log10 of the mean) ([2]; 15 mg/kg twice daily): 4.0** log10 CFU/g
- sterile/total vegetations ([2]; 15 mg/kg twice daily): 0/5
- outcome in one very ill human patient [3]: reduction in bacteremia
- killing of strains in time-kill experiment [4]: rapidly killed
- MIC (lower time-kill concentration stated to be one times MIC) (S. aureus strain AG461): 4 ng/mL
- effectiveness (health of the dogs, reduction of bacteria in heart valves and kidneys) [5]: only moderately effective
